Experimental data from US7632819B1, “Methods and compositions for inhibiting PKC delta cleavage for treatment and prevention of neurodegeneration and apoptosis” (Iowa State University Research Foundation, Inc., priority 2004, dated 2009).
Where two headings read alike, the source gives them in different places. The star is where a group is joined. Cbz = O=C(OCc1ccccc1)*; CH2F = FC*

How the values were obtained:
[1] = MTT cytotoxicity assay, MPP+- and 6-OHDA-induced cytotoxicity; conditions: rat
Text: (§1) Chemicals. Protease cocktail, ATP, protein-A-sepharose, protein-G-sepharose and anti-â-actin antibody were obtained from Sigma-Aldrich (St. Louis, Mo.); mouse tyrosine hydroxylase antibody was purchased from Chemicon (Temecula, Calif.); the rabbit polyclonal antibody for tyrosine hydroxylase was obtained from Calbiochem Bioscience, Inc. (King of Prussia, Pa.); rabbit PKCδ antibody was purchased from Santa Cruz Biotechnology, Inc. (Santa Cruz, Calif.); anti-rabbit and anti-mouse secondary antibodies and the ECL chemiluminescence kit were purchased from Amersham Pharmacia Biotech. (Piscataway, N.J.). Alexa 488 conjugated antirabbit/mouse, Cy3 conjugated anti-rabbit/mouse antibody and Hoechst 33342 were purchased from Molecular Probes, Inc. (Eugene, Oreg.). [ã-32P]ATP was purchased from Perkin Elmer Life Science Products (Boston, Mass.). The Bradford protein assay kit was purchased from Bio-Rad Laboratories (Hercules, Calif.). RPMI, fetal bovine serum, -glutamine, penicillin, and streptomycin were purchased from Invitrogen (Gaithersburg, Md.). Quantity One 4.2.0 software was purchased from Bio-Rad. Design and synthesis of z-DIPD-fmk (SEQ ID NO:5). To develop a cell permeable peptide inhibitor to specifically block PKCδ cleavage, we designed the tetrapeptide Asp-Ile-Pro-Asp (DIPD) (SEQ ID NO:5) corresponding to position 324-327 in rat PKCδ cDNA representing the caspase-3 cleavage site. Since this peptide is directed against the caspase-3 cleavage site of PKCδ, it should prevent the proteolytic cleavage and activation of PKCδ mediated by caspase-3. The custom synthesis of the tetrapeptide Z-Asp(OMe)-Ile-Pro-Asp(OMe)-FMK (SEQ ID NO:5) was performed at MP Biomedicals (Irvine, Calif.), a quality company that specializes in developing cell permeable peptide inhibitors directed against apoptosis cell signaling molecules. […]

caspase-3 [2] = target: T1, caspase-3 (Rattus norvegicus, UniProt P55213); test: Caspase-3 activity assay with fluorogenic substrate Ac-DEVD-AFC in treated N27 cells; format: cell-based; conditions: toxin alone
T1 construct: N27 cells were exposed to either MPP^+ or 6-OHDA in the absence or presence of z-DIPD-fmk; endogenous in cells; host or cells: N27 rat mesencephalic dopaminergic neuronal cells
T1 sequence (P55213 29-175 limits assumed): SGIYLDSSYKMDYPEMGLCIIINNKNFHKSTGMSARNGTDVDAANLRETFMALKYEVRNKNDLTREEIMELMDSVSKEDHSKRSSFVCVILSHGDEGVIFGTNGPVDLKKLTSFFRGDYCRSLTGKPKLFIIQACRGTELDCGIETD
T1 sequence (P55213 176-277 limits assumed): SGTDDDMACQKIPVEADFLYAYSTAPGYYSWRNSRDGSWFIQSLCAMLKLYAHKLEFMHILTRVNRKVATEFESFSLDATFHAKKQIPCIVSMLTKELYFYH
Text: (§2) Chemicals. Protease cocktail, ATP, protein-A-sepharose, protein-G-sepharose and anti-â-actin antibody were obtained from Sigma-Aldrich (St. Louis, Mo.); mouse tyrosine hydroxylase antibody was purchased from Chemicon (Temecula, Calif.); the rabbit polyclonal antibody for tyrosine hydroxylase was obtained from Calbiochem Bioscience, Inc. (King of Prussia, Pa.); rabbit PKCδ antibody was purchased from Santa Cruz Biotechnology, Inc. (Santa Cruz, Calif.); anti-rabbit and anti-mouse secondary antibodies and the ECL chemiluminescence kit were purchased from Amersham Pharmacia Biotech. (Piscataway, N.J.). Alexa 488 conjugated antirabbit/mouse, Cy3 conjugated anti-rabbit/mouse antibody and Hoechst 33342 were purchased from Molecular Probes, Inc. (Eugene, Oreg.). [ã-32P]ATP was purchased from Perkin Elmer Life Science Products (Boston, Mass.). The Bradford protein assay kit was purchased from Bio-Rad Laboratories (Hercules, Calif.). RPMI, fetal bovine serum, -glutamine, penicillin, and streptomycin were purchased from Invitrogen (Gaithersburg, Md.). Quantity One 4.2.0 software was purchased from Bio-Rad. Design and synthesis of z-DIPD-fmk (SEQ ID NO:5). To develop a cell permeable peptide inhibitor to specifically block PKCδ cleavage, we designed the tetrapeptide Asp-Ile-Pro-Asp (DIPD) (SEQ ID NO:5) corresponding to position 324-327 in rat PKCδ cDNA representing the caspase-3 cleavage site. Since this peptide is directed against the caspase-3 cleavage site of PKCδ, it should prevent the proteolytic cleavage and activation of PKCδ mediated by caspase-3. The custom synthesis of the tetrapeptide Z-Asp(OMe)-Ile-Pro-Asp(OMe)-FMK (SEQ ID NO:5) was performed at MP Biomedicals (Irvine, Calif.), a quality company that specializes in developing cell permeable peptide inhibitors directed against apoptosis cell signaling molecules. Briefly, the synthesis was performed with the reaction of Boc-D(OMe)-OH with MBFM (Magnesium benzyl fluoromalonate) to produce Beta-Keto fluoroester, followed by hydrogenation with Pd/c to produce Boc-D(OMe)FK, which was converted into Tfa salt using trifluoroacetic acid. Coupling of Tfa salt with Z-D(OMe)—I—P—OH in DMF with HOBT, HBTU DIEA and workup produced a crude product which was purified by column chromatography over silica gel. Elution with EtOAC:MeOH 95:5 gave pure fractions which were mixed and dried. Crystallization with EtOAC/Hexane, filtration and drying produced the pure product. Animals. Time-pregnant C57/bL mice were housed under standard conditions: constant temperature (22±1° C.), humidity (relative, 30%) and a 12-h light/dark cycle with free access to food and water. The animals and protocol procedures were approved and supervised by the Committee on Animal Care (COAC) at Iowa State University. Cell culture. Rat mesencephalic dopaminergic neuronal (N27) cells were cultured as described earlier (Anantharam et al., 2002). Briefly, cells were grown in RPMI 1640 medium containing 10% fetal bovine serum, 2 mM L-glutamine, 50 units of penicillin, and 50 μg/ml streptomycin. Cells were maintained in a humidified atmosphere of 5% CO2 at 37° C. Primary mesencephalic neuronal cultures were prepared from the ventral mesencephalon of gestational 18-day-old mice embryos as described previously (Yang et al., 2004). Mesencephalic tissues were dissected and maintained in ice-cold Ca2+-free HBSS and then dissociated in HBSS solution containing trypsin-EDTA (0.25%) for 20 min at 37° C. […]

PKCδ = test: Immunoprecipitation kinase assay (histone H1 phosphorylation) in N27 cells; format: cell-based, rat; conditions: toxin alone
Text: as §2, with “culture.” for “culture. Rat mesencephalic dopaminergic neuronal (N27) cells were cultured as described earlier (Anantharam et al., 2002). Briefly, cells were grown in RPMI 1640 medium containing 10% fetal bovine serum, 2 mM L-glutamine, 50 units of penicillin, and 50 μg/ml streptomycin. Cells were maintained in a humidified atmosphere of 5% CO2 at 37° C. Primary mesencephalic neuronal cultures were prepared from the ventral mesencephalon of gestational 18-day-old mice embryos as described previously (Yang et al., 2004). Mesencephalic tissues were dissected and maintained in ice-cold Ca2+-free HBSS and then dissociated in HBSS solution containing trypsin-EDTA (0.25%) for 20 min at 37° C.”

N27 cells = conditions: for increase in DNA fragmentation compared to untreated cells: toxin alone
Method: […] Z is the abbreviation for N-benzyloxycarbonyl. Untreated cells were used as control samples. After the treatment, the cells were collected by trypsinization (Trypsin 0.25%, 1 mM EDTA), centrifuged at 200×g for 5 min, washed with PBS twice, then lysed. The lysate was used for DNA fragmentation assay.
DNA fragmentation assays were performed using a recently developed Cell Death Detection ELISA Plus Assay Kit. This is a fast, highly sensitive and reliable assay for the detection of early changes in apoptotic cell death. After treatments, 20 μl of cell lysate was processed according to the manufacturer's protocol. The assay solution consisted of a mixture of anti-histone biotin and anti-DNA-HRP directed against various histones and antibodies to both single stranded DNA and double stranded DNA, the major constituents of nucleosomes. After 2 hr incubation, unbound components were removed by washing with the incubation buffer supplied with the kit. Quantification of the nucleosomes retained by anti-DNA-HRP in the immunocomplex was determined spectrophotometrically with ABTS (2,2′-azino-di[3-ethoxybenzyl thiazoline sulfonate) as a HRP substrate (supplied with the kit). Measurements were made at 405 nm against an ABTS solution as a blank (reference wave length 490 nm).
Chemicals. Protease cocktail, ATP, protein-A-sepharose, protein-G-sepharose and anti-â-actin antibody were obtained from Sigma-Aldrich (St. Louis, Mo.); mouse tyrosine hydroxylase antibody was purchased from Chemicon (Temecula, Calif.); the rabbit polyclonal antibody for tyrosine hydroxylase was obtained from Calbiochem Bioscience, Inc. (King of Prussia, Pa.); rabbit PKCδ antibody was purchased from Santa Cruz Biotechnology, Inc. (Santa Cruz, Calif.); anti-rabbit and anti-mouse secondary antibodies and the ECL chemiluminescence kit were purchased from Amersham Pharmacia Biotech. (Piscataway, N.J.). Alexa 488 conjugated antirabbit/mouse, Cy3 conjugated anti-rabbit/mouse antibody and Hoechst 33342 were purchased from Molecular Probes, Inc. (Eugene, Oreg.). [ã-32P]ATP was purchased from Perkin Elmer Life Science Products (Boston, Mass.). The Bradford protein assay kit was purchased from Bio-Rad Laboratories (Hercules, Calif.). RPMI, fetal bovine serum, -glutamine, penicillin, and streptomycin were purchased from Invitrogen (Gaithersburg, Md.). Quantity One 4.2.0 software was purchased from Bio-Rad. Design and synthesis of z-DIPD-fmk (SEQ ID NO:5). To develop a cell permeable peptide inhibitor to specifically block PKCδ cleavage, we designed the tetrapeptide Asp-Ile-Pro-Asp (DIPD) (SEQ ID NO:5) corresponding to position 324-327 in rat PKCδ cDNA representing the caspase-3 cleavage site. Since this peptide is directed against the caspase-3 cleavage site of PKCδ, it should prevent the proteolytic cleavage and activation of PKCδ mediated by caspase-3. The custom synthesis of the tetrapeptide Z-Asp(OMe)-Ile-Pro-Asp(OMe)-FMK (SEQ ID NO:5) was performed at MP Biomedicals (Irvine, Calif.), a quality company that specializes in developing cell permeable peptide inhibitors directed against apoptosis cell signaling molecules. Briefly, the synthesis was performed with the reaction of Boc-D(OMe)-OH with MBFM (Magnesium benzyl fluoromalonate) to produce Beta-Keto fluoroester, followed by hydrogenation with Pd/c to produce Boc-D(OMe)FK, which was converted into Tfa salt using trifluoroacetic acid. Coupling of Tfa salt with Z-D(OMe)—I—P—OH in DMF with HOBT, HBTU DIEA and workup produced a crude product which was purified by column chromatography over silica gel. Elution with EtOAC:MeOH 95:5 gave pure fractions which were mixed and dried. Crystallization with EtOAC/Hexane, filtration and drying produced the pure product. Animals.

[3] = system: N27 mesencephalic neuronal cells; test: MTT cytotoxicity assay, MPP+- and 6-OHDA-induced cytotoxicity; conditions: N27 cells, 300 μM MPP+ 36 hr, toxin alone
Text: as §1

caspase-3 [4] = target: T2, caspase-3 (rat, UniProt P55213 29-277, limits assumed); test: cell-based or functional assay
T2 sequence (looked up): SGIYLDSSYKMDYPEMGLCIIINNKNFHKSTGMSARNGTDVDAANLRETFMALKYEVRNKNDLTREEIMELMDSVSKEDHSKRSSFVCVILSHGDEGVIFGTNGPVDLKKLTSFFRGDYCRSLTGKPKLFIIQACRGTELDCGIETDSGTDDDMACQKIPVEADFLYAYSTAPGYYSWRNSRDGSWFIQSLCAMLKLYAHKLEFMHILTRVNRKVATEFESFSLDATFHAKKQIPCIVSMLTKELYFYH

NCCc1cc(O)c(O)cc1O [6-OHDA, 6-hydroxydopamine, reference compound]
cytotoxicity at 24 h, 100 μM [1]: > 60%
increase in caspase-3 enzyme activity (caspase-3 [2]; 100 μM 6-OHDA 24 hr): ~2.5 fold
increase in PKCδ enzymatic activity over the untreated cells (PKCδ; 100 μM 6-OHDA 24 hr): 235%
increase in DNA fragmentation compared to untreated cells (N27 cells; 100 μM 6-OHDA 24 hr): 93%

COC(=O)CC[C@H](NC(=O)[C@H](CC(=O)OC)NC(=O)OCc1ccccc1)C(=O)N[C@H](C(=O)N[C@@H](CC(=O)OC)C(=O)CF)C(C)C [z-DEVD-fmk, Asp-Glu-Val-Asp-FMK, reference compound]
effect on 6-OHDA-induced DNA fragmentation / apoptotic cell death (N27 cells; 100 μM 6-OHDA 24 hr, concentration not stated or dose-response 1-50 μM): dose dependently blocked
IC50 (N27 cells; read-out: IC50, 6-OHDA-induced DNA fragmentation (apoptotic cell death), 100 μM 6-OHDA 24 hr, inhibitor 1-50 μM): 18 µM

C[n+]1ccc(-c2ccccc2)cc1 [MPP^+, 1-methyl-4-phenylpyridinium, reference compound]
loss of cell viability (MTT) [3]: more than 40%
increase in caspase-3 enzyme activity (caspase-3 [2]; 300 μM MPP+ 36 hr): ~2.5 fold
increase in PKCδ enzymatic activity over the untreated cells (PKCδ; 300 μM MPP+ 36 hr): 333%
increase in DNA fragmentation compared to untreated cells (N27 cells; 300 μM MPP+ 36 hr): 75%

B1: z-DEVD-fmk (Asp-Glu-Val-Asp-FMK) (peptide)
peptide: Cbz-DEVD-CH2F
SMILES: CC(C)[C@H](NC(=O)[C@H](CCC(=O)O)NC(=O)[C@H](CC(=O)O)NC(=O)OCc1ccccc1)C(=O)N[C@@H](CC(=O)O)C(=O)CF
IC50 for inhibition of 6-OHDA-induced DNA fragmentation (Cell Death Detection ELISA) in N27 cells (caspase-3 [4]): 18 µM

B2: Z-Asp(OMe)-Ile-Pro-Asp(OMe)-FMK (N-benzyloxycarbonyl-Asp(OMe)-Ile-Pro-Asp(OMe)-fluoromethyl ketone) (peptide)
peptide: Cbz-D(OMe)IPD(OMe)-CH2F
SMILES: CC[C@H](C)[C@H](NC(=O)[C@H](CC(=O)OC)NC(=O)OCc1ccccc1)C(=O)N1CCC[C@H]1C(=O)N[C@@H](CC(=O)OC)C(=O)CF
IC50 for inhibition of 6-OHDA-induced DNA fragmentation (Cell Death Detection ELISA) in N27 cells (caspase-3 [4]): 6 µM
